The test system of this experiment is MV-4-11 cells. Briefly: Gene expression microarray analysis (Affymetrix PrimeView) and GSEA. Type of experiment: cell-based, human. The arrangement: RFU PODN (11730768_x_at) / Fold change /veh PODN (11730768_x_at) / RFU LINC00158 (11744669_a_at) / Fold change /veh LINC00158 (11744669_a_at) / RFU DUSP10 (11751237_a_at) / Fold change /veh DUSP10 (11751237_a_at) / RFU ID3 (11757404_x_at) / Fold change /veh ID3 (11757404_x_at) / RFU PLEKHG5 (11737974_s_at) / Fold change /veh PLEKHG5 (11737974_s_at) / RFU LRRC4B (11730491_at) / Fold change /veh LRRC4B (11730491_at) / RFU GIMAP4 (11747438_a_at) / Fold change /veh GIMAP4 (11747438_a_at) / RFU KRT8 (11758183_x_at) / Fold change /veh KRT8 (11758183_x_at) / RFU CNN1 (11734310_a_at) / Fold change /veh CNN1 (11734310_a_at) / RFU VPS37D (11726825_at) / Fold change /veh VPS37D (11726825_at) / RFU C10orf10 (11716522_x_at) / Fold change /veh C10orf10 (11716522_x_at) / RFU KIR2DL2 /// KIR2DL4 /// KIR2DL5A /// KIR2DL5B /// KIR2DS1 /// KIR2DS2 /// KIR2DS3 /// KIR2DS4 /// KIR3DL3 /// KIR3DL3 /// KIR3DS1 (11738374_at) / Fold change /veh KIR2DL2 /// KIR2DL4 /// KIR2DL5A /// KIR2DL5B /// KIR2DS1 /// KIR2DS2 /// KIR2DS3 /// KIR2DS4 /// KIR3DL3 /// KIR3DL3 /// KIR3DS1 (11738374_at) / RFU C1QL1 (11718748_at) / Fold change /veh C1QL1 (11718748_at) / RFU TMPRSS4 (11747572_a_at) / Fold change /veh TMPRSS4 (11747572_a_at) / RFU HAMP (11756126_x_at) / Fold change /veh HAMP (11756126_x_at) / RFU RNFT2 (11725882_a_at) / Fold change /veh RNFT2 (11725882_a_at) / RFU NR4A2 (11747474_a_at) / Fold change /veh NR4A2 (11747474_a_at) / RFU ABCC12 (11746883_a_at) / Fold change /veh ABCC12 (11746883_a_at) / RFU TMEM136 (11760407_x_at) / Fold change /veh TMEM136 (11760407_x_at) / RFU CLDN22 /// WWC2 (11732394_at) / Fold change /veh CLDN22 /// WWC2 (11732394_at) / RFU HLA-DPB1 (11760878_x_at) / Fold change /veh HLA-DPB1 (11760878_x_at) / RFU SPINT1 (11716480_a_at) / Fold change /veh SPINT1 (11716480_a_at) / RFU GAP43 (11754022_s_at) / Fold change /veh GAP43 (11754022_s_at) / RFU A4GNT (11735810_at) / Fold change /veh A4GNT (11735810_at) / RFU PRB3 (11715151_x_at) / Fold change /veh PRB3 (11715151_x_at) / RFU TUBB4B (11761932_at) / Fold change /veh TUBB4B (11761932_at) / RFU CAPN14 (11732068_a_at) / Fold change /veh CAPN14 (11732068_a_at) / RFU TMCC2 (11721928_a_at) / Fold change /veh TMCC2 (11721928_a_at) / RFU IRGQ (11745062_a_at) / Fold change /veh IRGQ (11745062_a_at) / RFU FAM174B (11720279_a_at) / Fold change /veh FAM174B (11720279_a_at) / RFU TMPRSS4 (11748680_a_at) / Fold change /veh TMPRSS4 (11748680_a_at) / RFU FAM212B (11763350_a_at) / Fold change /veh FAM212B (11763350_a_at) / RFU PLEKHG5 (11743358_a_at) / Fold change /veh PLEKHG5 (11743358_a_at) / RFU ZSCAN30 (11745921_a_at) / Fold change /veh ZSCAN30 (11745921_a_at) / RFU CMKLR1 (11741424_a_at) / Fold change /veh CMKLR1 (11741424_a_at) / RFU LOC101060620 /// MAPK8IP1 (11723275_at) / Fold change /veh LOC101060620 /// MAPK8IP1 (11723275_at) / RFU SPTSSB (11747773_x_at) / Fold change /veh SPTSSB (11747773_x_at) / RFU PRSS12 (11739890_at) / Fold change /veh PRSS12 (11739890_at) / RFU BIN1 (11741810_x_at) / Fold change /veh BIN1 (11741810_x_at) / RFU WNT11 (11732464_a_at) / Fold change /veh WNT11 (11732464_a_at) / RFU C10orf10 (11716521_a_at) / Fold change /veh C10orf10 (11716521_a_at) / RFU C5orf56 (11738089_at) / Fold change /veh C5orf56 (11738089_at) / RFU CYB561 (11721691_x_at) / Fold change /veh CYB561 (11721691_x_at) / RFU ANKRD19P (11752326_a_at) / Fold change /veh ANKRD19P (11752326_a_at) / RFU OR2T12 /// OR2T33 /// OR2T8 (11738714_s_at) / Fold change /veh OR2T12 /// OR2T33 /// OR2T8 (11738714_s_at) / RFU VCAN (11748164_a_at) / Fold change /veh VCAN (11748164_a_at) / RFU JSRP1 (11732532_at) / Fold change /veh JSRP1 (11732532_at) / RFU KRTAP10-11 (11738290_x_at) / Fold change /veh KRTAP10-11 (11738290_x_at) / RFU MYO3A (11730013_a_at) / Fold change /veh MYO3A (11730013_a_at) / RFU EBF3 (11725865_a_at) / Fold change /veh EBF3 (11725865_a_at) / RFU CAMK2N1 (11719241_x_at) / Fold change /veh CAMK2N1 (11719241_x_at) / RFU C5orf56 (11738088_a_at) / Fold change /veh C5orf56 (11738088_a_at) / RFU OLFML3 (11715873_a_at) / Fold change /veh OLFML3 (11715873_a_at) / RFU LOC100653217 /// NTM (11731650_a_at) / Fold change /veh LOC100653217 /// NTM (11731650_a_at) / RFU MAPK11 (11762145_a_at) / Fold change /veh MAPK11 (11762145_a_at) / RFU FIZ1 (11724087_x_at) / Fold change /veh FIZ1 (11724087_x_at) / RFU OASL (11726364_x_at) / Fold change /veh OASL (11726364_x_at) / RFU SOX15 (11748057_x_at) / Fold change /veh SOX15 (11748057_x_at) / RFU CD79A (11719716_a_at) / Fold change /veh CD79A (11719716_a_at) / RFU HIST1H1D (11736915_at) / Fold change /veh HIST1H1D (11736915_at) / RFU CASKIN2 (11723855_a_at) / Fold change /veh CASKIN2 (11723855_a_at) / RFU LOC730098 (11760151_x_at) / Fold change /veh LOC730098 (11760151_x_at) / RFU OR4N2 (11742367_at) / Fold change /veh OR4N2 (11742367_at) / RFU PRRT2 (11749266_a_at) / Fold change /veh PRRT2 (11749266_a_at) / RFU SNX32 (11753110_a_at) / Fold change /veh SNX32 (11753110_a_at) / RFU CDHR5 (11726645_a_at) / Fold change /veh CDHR5 (11726645_a_at) / RFU RCAN1 (11760418_a_at) / Fold change /veh RCAN1 (11760418_a_at) / RFU FAM167A (11723789_a_at) / Fold change /veh FAM167A (11723789_a_at) / RFU FAM26E (11764081_at) / Fold change /veh FAM26E (11764081_at) / RFU ISYNA1 (11749810_s_at) / Fold change /veh ISYNA1 (11749810_s_at) / RFU ACY1 (11761880_at) / Fold change /veh ACY1 (11761880_at) / RFU 11764098_at / Fold change /veh 11764098_at / RFU SAMD14 (11745864_x_at) / Fold change /veh SAMD14 (11745864_x_at) / RFU NPB (11741838_a_at) / Fold change /veh NPB (11741838_a_at) / RFU TMPRSS6 (11731388_a_at) / Fold change /veh TMPRSS6 (11731388_a_at) / RFU KRTAP10-2 (11738614_at) / Fold change /veh KRTAP10-2 (11738614_at) / RFU ARHGAP8 /// PRR5-ARHGAP8 (11727945_x_at) / Fold change /veh ARHGAP8 /// PRR5-ARHGAP8 (11727945_x_at) / RFU KRTAP5-7 /// NADSYN1 (11734609_at) / Fold change /veh KRTAP5-7 /// NADSYN1 (11734609_at) / RFU RASL12 (11751679_a_at) / Fold change /veh RASL12 (11751679_a_at) / RFU CDKN2B (11736163_a_at) / Fold change /veh CDKN2B (11736163_a_at) / RFU PRF1 (11729649_at) / Fold change /veh PRF1 (11729649_at) / RFU, ZNF638 /// ZNF638-IT1 / Fold change vs veh, ZNF638 /// ZNF638-IT1 / RFU, PANK3 / Fold change vs veh, PANK3 / RFU, SH3YL1 / Fold change vs veh, SH3YL1 / RFU, ZEB2 / Fold change vs veh, ZEB2 / RFU, NRIP1 / Fold change vs veh, NRIP1 / RFU, PTTG1IP / Fold change vs veh, PTTG1IP / RFU, CAPN2 / Fold change vs veh, CAPN2 / RFU, MED14 / Fold change vs veh, MED14 / RFU, SNORA58 / Fold change vs veh, SNORA58 / RFU, C1orf63 / Fold change vs veh, C1orf63 / RFU, LRRFIP1 / Fold change vs veh, LRRFIP1 / RFU, NDUFAF7 / Fold change vs veh, NDUFAF7 / RFU, SLC12A2 / Fold change vs veh, SLC12A2 / RFU, IBTK / Fold change vs veh, IBTK / RFU, ESF1 / Fold change vs veh, ESF1 / Fold change vs veh, TMEM50B / RFU, TAOK1 / Fold change vs veh, TAOK1 / RFU, ACBD3 / Fold change vs veh, ACBD3 / RFU, TMA16 / Fold change vs veh, TMA16 / RFU, RWDD3 / Fold change vs veh, RWDD3 / RFU, BCAT1 / Fold change vs veh, BCAT1 / RFU, EDEM3 / Fold change vs veh, EDEM3 / RFU, TMEM33 / Fold change vs veh, TMEM33 / RFU, WDR75 / Fold change vs veh, WDR75 / RFU, AHCTF1 / Fold change vs veh, AHCTF1 / RFU, TFRC / Fold change vs veh, TFRC / RFU, ZDHHC17 / Fold change vs veh, ZDHHC17 / RFU, NOM1 / Fold change vs veh, NOM1 / RFU, ARL8B / Fold change vs veh, ARL8B / RFU, ZBTB11 / Fold change vs veh, ZBTB11 / RFU, TAMM41 / Fold change vs veh, TAMM41 / RFU, KIAA1704 /// LOC100996395 / Fold change vs veh, KIAA1704 /// LOC100996395 / RFU, ING1 / Fold change vs veh, ING1 / RFU, TRMT61B / Fold change vs veh, TRMT61B / RFU, FUBP3 / Fold change vs veh, FUBP3 / RFU, TP53 / Fold change vs veh, TP53 / RFU, TNKS2 / Fold change vs veh, TNKS2 / RFU, ZFP14 / Fold change vs veh, ZFP14 / RFU, ACTR2 / Fold change vs veh, ACTR2 / RFU, PPP3R1 / Fold change vs veh, PPP3R1 / RFU, PIK3R1 / Fold change vs veh, PIK3R1 / RFU, HNRNPA1 / Fold change vs veh, HNRNPA1 / RFU, RNF170 / Fold change vs veh, RNF170 / RFU, ZNF28 / Fold change vs veh, ZNF28 / RFU, RNGTT / Fold change vs veh, RNGTT / RFU, OGT / Fold change vs veh, OGT / RFU, BRD1 / Fold change vs veh, BRD1 / RFU, MARS / Fold change vs veh, MARS / RFU, ZNF655 / Fold change vs veh, ZNF655 / RFU, FAHD1 / Fold change vs veh, FAHD1 / RFU, BDP1 / Fold change vs veh, BDP1 / RFU, LRRCC1 / Fold change vs veh, LRRCC1 / RFU, ARID1A / Fold change vs veh, ARID1A / RFU, ZNF146 / Fold change vs veh, ZNF146 / RFU, ZNF330 / Fold change vs veh, ZNF330 / RFU, GPN3 / Fold change vs veh, GPN3 / RFU, C9orf123 / Fold change vs veh, C9orf123 / RFU, N4BP2L2 / Fold change vs veh, N4BP2L2 / RFU, ARFIP1 / Fold change vs veh, ARFIP1 / RFU, FAM179B / Fold change vs veh, FAM179B / RFU, BCL10 / Fold change vs veh, BCL10 / RFU, UHRF1BP1L / Fold change vs veh, UHRF1BP1L / RFU, BET1 / Fold change vs veh, BET1 / RFU, CNOT2 / Fold change vs veh, CNOT2 / RFU, ZNF268 / Fold change vs veh, ZNF268 / Fold change vs veh, ZNF507 / RFU, DGCR2 / Fold change vs veh, DGCR2 / RFU, WDSUB1 / Fold change vs veh, WDSUB1 / Fold change vs veh, HSP90B1 /// MIR3652 / RFU, ADSS / Fold change vs veh, ADSS / RFU, GK / Fold change vs veh, GK / RFU, ZNF148 / Fold change vs veh, ZNF148 / RFU, TAF9 / Fold change vs veh, TAF9 / RFU, SLC1A5 / Fold change vs veh, SLC1A5 / RFU, SLMO2 / Fold change vs veh, SLMO2 / RFU, ABCC4 / Fold change vs veh, ABCC4 / RFU, LOC101060439 /// RAP1B / Fold change vs veh, LOC101060439 /// RAP1B / RFU, RFX7 / Fold change vs veh, RFX7 / RFU, GTPBP10 / Fold change vs veh, GTPBP10 / RFU, CNEP1R1 / Fold change vs veh, CNEP1R1 / RFU, BIVM-ERCC5 /// ERCC5 / Fold change vs veh, BIVM-ERCC5 /// ERCC5 / RFU, ILF3 / Fold change vs veh, ILF3 / RFU 11762660_at / Fold change /veh 11762660_at / RFU VCAN (11757783_s_at) / Fold change /veh VCAN (11757783_s_at) / RFU DDX43 (11728927_at) / Fold change /veh DDX43 (11728927_at) / RFU KRT8 (11758188_x_at) / Fold change /veh KRT8 (11758188_x_at) / RFU NKD1 (11759106_at) / Fold change /veh NKD1 (11759106_at) / RFU SRD5A1 (11742802_a_at) / Fold change /veh SRD5A1 (11742802_a_at) / RFU TPSAB1 /// TPSB2 (11721975_s_at) / Fold change /veh TPSAB1 /// TPSB2 (11721975_s_at) / RFU GSTM3 (11746129_a_at) / Fold change /veh GSTM3 (11746129_a_at) / RFU IL23R (11737362_x_at) / Fold change /veh IL23R (11737362_x_at) / RFU TMEM51 (11727254_a_at) / Fold change /veh TMEM51 (11727254_a_at) / RFU PIWIL2 (11732686_x_at) / Fold change /veh PIWIL2 (11732686_x_at) / RFU ORM1 (11744905_x_at) / Fold change /veh ORM1 (11744905_x_at) / RFU CCDC152 (11743942_at) / Fold change /veh CCDC152 (11743942_at) / RFU ECM1 (11717891_a_at) / Fold change /veh ECM1 (11717891_a_at) / RFU IL23R (11748794_a_at) / Fold change /veh IL23R (11748794_a_at) / RFU TNFAIP8L3 (11732012_x_at) / Fold change /veh TNFAIP8L3 (11732012_x_at) / RFU MBOAT4 (11741988_at) / Fold change /veh MBOAT4 (11741988_at) / RFU 11764193_at / Fold change /veh 11764193_at / RFU TMEM53 (11763286_at) / Fold change /veh TMEM53 (11763286_at) / RFU MAGEB2 (11727129_at) / Fold change /veh MAGEB2 (11727129_at) / RFU TMEM200A (11744735_a_at) / Fold change /veh TMEM200A (11744735_a_at) / RFU CCDC152 (11751479_a_at) / Fold change /veh CCDC152 (11751479_a_at) / RFU FAM211A (11726209_a_at) / Fold change /veh FAM211A (11726209_a_at) / RFU RGS16 (11746705_a_at) / Fold change /veh RGS16 (11746705_a_at) / RFU VCAN (11755009_s_at) / Fold change /veh VCAN (11755009_s_at) / RFU RHOB (11743442_s_at) / Fold change /veh RHOB (11743442_s_at) / RFU RGS16 (11720943_a_at) / Fold change /veh RGS16 (11720943_a_at) / RFU RGS16 (11720944_at) / Fold change /veh RGS16 (11720944_at) / RFU, VPS4B / Fold change vs veh, VPS4B / RFU, CREB1 / Fold change vs veh, CREB1 / RFU, DNAJC13 / Fold change vs veh, DNAJC13 / RFU, GNAQ / Fold change vs veh, GNAQ / RFU, CDK5R1 / Fold change vs veh, CDK5R1 / RFU, ZRANB3 / Fold change vs veh, ZRANB3 / RFU, CUL4A / Fold change vs veh, CUL4A / RFU, CCNY / Fold change vs veh, CCNY / RFU, UFL1 / Fold change vs veh, UFL1 / RFU, COG3 / Fold change vs veh, COG3 / RFU, DIAPH2 / Fold change vs veh, DIAPH2 / RFU, SKA2 / Fold change vs veh, SKA2 / RFU, AFF3 / Fold change vs veh, AFF3 / RFU, LMF1 / Fold change vs veh, LMF1 / RFU, IPO11 / Fold change vs veh, IPO11 / RFU, DFFB / Fold change vs veh, DFFB / RFU, FOXP1 / Fold change vs veh, FOXP1 / RFU, CARD8 / Fold change vs veh, CARD8 / RFU, STRN3 / Fold change vs veh, STRN3 / RFU, ADK / Fold change vs veh, ADK / RFU, RASSF2 / Fold change vs veh, RASSF2 / RFU, WIPF1 / Fold change vs veh, WIPF1 / RFU, LARP1B / Fold change vs veh, LARP1B / RFU, RASA1 / Fold change vs veh, RASA1 / RFU, RB1 / Fold change vs veh, RB1 / RFU, PPFIA1 / Fold change vs veh, PPFIA1 / RFU, MAT2A / Fold change vs veh, MAT2A / RFU, CCT5 / Fold change vs veh, CCT5 / RFU, WDR92 / Fold change vs veh, WDR92 / RFU, CUX1 / Fold change vs veh, CUX1 / RFU, TTC7A / Fold change vs veh, TTC7A / RFU, TMEM135 / Fold change vs veh, TMEM135 / RFU, DEPTOR / Fold change vs veh, DEPTOR / RFU, CPM / Fold change vs veh, CPM / RFU, DNAJB6 / Fold change vs veh, DNAJB6 / RFU, CACNA2D3 / Fold change vs veh, CACNA2D3 / RFU, DTX4 / Fold change vs veh, DTX4 / RFU, TFCP2 / Fold change vs veh, TFCP2 / RFU, GMCL1 /// GMCL1P1 / Fold change vs veh, GMCL1 /// GMCL1P1 / RFU, AEBP2 / Fold change vs veh, AEBP2 / RFU, SNHG1 /// SNORD22 /// SNORD25 /// SNORD26 /// SNORD27 /// SNORD28 /// SNORD29 /// SNORD31 / Fold change vs veh, SNHG1 /// SNORD22 /// SNORD25 /// SNORD26 /// SNORD27 /// SNORD28 /// SNORD29 /// SNORD31 / Fold change (Aza/veh), C12orf56 (ProbeSet 11735607_a_at) / Fold change (ACY-1035/veh), C12orf56 (ProbeSet 11735607_a_at) / Fold change (Aza/veh), FGFR1OP (ProbeSet 11751329_s_at) / Fold change (ACY-1035/veh), FGFR1OP (ProbeSet 11751329_s_at) / Fold change (Aza/veh), VPS36 (ProbeSet 11739960_a_at) / Fold change (ACY-1035/veh), VPS36 (ProbeSet 11739960_a_at) / RFU SYPL1 (11715823_x_at) / Fold change /veh SYPL1 (11715823_x_at) / RFU IGFBP7 (11715501_s_at) / Fold change /veh IGFBP7 (11715501_s_at) / RFU REEP3 (11722064_at) / Fold change /veh REEP3 (11722064_at) / RFU IGLL1 (11728026_x_at) / Fold change /veh IGLL1 (11728026_x_at): dose or concentration left out as unconfirmed. Conditions: MV-4-11 cells, 48 hours.

`Nc1ccc(-c2cccs2)cc1NC(=O)c1ccc2c(c1)cc(C1CC1)n2CCN1CCOCC1` [ACY-1035]: the “RFU VCAN (11748164_a_at)” value came to 5.33 RFU.
